Patent publication US12622894B2, “Pharmaceutical compositions and intravitreal drug delivery systems for the treatment of ocular diseases” (Perfuse Therapeutics, Inc., priority 2021, dated 2026)
Values belong to the molecule of their own block, whether it stands above or below them.

Key:
[1] = In vitro melanin binding assay with synthetic melanin; details: 200 μM; melanin 1 mg/mL
Experimental: A concentration of 200 μM chloroquine was used as a positive control.

[2] = pH 7.4 in 2 mg/mL melanin solution; cited from earlier work
[3] = cited from earlier work
[4] = Slurry conversion of crystalline forms in isopropanol and water, XRPD analysis; format: physicochemical
Experimental: In an alternate method, 150 mg of Edonentan (Form 3) was added to a mixture of isopropanol and water (1 mL and 2 mL, respectively). The resulting slurry was stirred at 15° C. for 48 hours and then filtered.
In an alternate method, 200 mg of Edonentan (Form 1) was added to a mixture of isopropanol and water (1.3 mL and 2.6 mL, respectively). The resulting solution was heated to 80° C. and stirred for 24 h, then cooled and filtered.

Compound: Cc1onc(NS(=O)(=O)c2ccccc2-c2ccc(-c3ncco3)cc2CN(C)C(=O)CC(C)(C)C)c1C [Form 1]
Solubility pH 7.0 Phosphate Buffer: 264 μg/mL

Compound: CCN(CC)CCCC(C)Nc1ccnc2cc(Cl)ccc12 (centres unmarked) [chloroquine]
binding to melanin (% bound) [1]: 99.5 % bound | bound to melanin, literature values [2]: 92-99.6 % bound

Compound: Cc1onc(NS(=O)(=O)c2ccccc2-c2ccc(-c3ncco3)cc2CN(C)C(=O)CC(C)(C)C)c1C [Edonentan, N-[[2′-[[(4,5-dimethyl-3-isoxazolyl)amino]sulfonyl]-4-(2-oxazolyl)[1,1′-biphenyl]-2-yl]methyl]-N,3,3-trimethylbutanamide]
oral Tmax [3]: 24 min

Compound: Cc1onc(NS(=O)(=O)c2ccccc2-c2ccc(-c3ncco3)cc2CN(C)C(=O)CC(C)(C)C)c1C [Form 4]
relative thermodynamic stability of crystalline forms ([4]; Form 1 in isopropanol and water, 80° C., 24 h): more thermodynamically stable than Form 1 | relative thermodynamic stability of crystalline forms ([4]; slurry of Form 3 in isopropanol and water, 15° C., 48 hours): more thermodynamically stable than Form 3

More lines, now with the values ahead:

Solubility pH 7.0 Phosphate Buffer: 35 μg/mL
Compound: Cc1onc(NS(=O)(=O)c2ccccc2-c2ccc(-c3ncco3)cc2CN(C)C(=O)CC(C)(C)C)c1C [Form 2]

Solubility pH 7.0 Phosphate Buffer: 251 μg/mL
Compound: Cc1onc(NS(=O)(=O)c2ccccc2-c2ccc(-c3ncco3)cc2CN(C)C(=O)CC(C)(C)C)c1C [Form 3]
